Laboratory results as given in ChEMBL document CHEMBL1201862, “PubChem BioAssay data set” (2004).
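Exposure lasted 48 hours, with cells grown in 96-well plates and compounds tested at five concentrations. Here, GI50 denotes the concentration required for 50% inhibition of growth.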 The source made the active and inactive calls. Cut-off read from the data, not from the text of the source: active = GI50 up to about 1.1 µM and inactive = higher.

Assays:
Test in all cases: inhibition of tumour cell growth, NCI panel, 48 h
SW-620 = system: SW-620
RPMI-8226 = system: RPMI-8226
MDA-MB-435 = system: MDA-MB-435
HT-29 = system: HT-29
ACHN = system: ACHN
COLO 205 = system: COLO 205
HCT-116 = system: HCT-116
A549 = system: A549
SNB-75 = system: SNB-75
KM12 = system: KM12
MOLT-4 = system: MOLT-4
Hs-578T = system: Hs-578T
OVCAR-8 = system: OVCAR-8
HOP-62 = system: HOP-62
OVCAR-5 = system: OVCAR-5
NCI-H522 = system: NCI-H522
HCC 2998 = system: HCC 2998
786-0 = system: 786-0
SNB-19 = system: SNB-19
RXF 393 = system: RXF 393
CAKI-1 = system: CAKI-1
NCI-H23 = system: NCI-H23
UACC-257 = system: UACC-257
SK-OV-3 = system: SK-OV-3
SR = system: SR
HOP-92 = system: HOP-92
LOX IMVI = system: LOX IMVI
A498 = system: A498
NCI-H460 = system: NCI-H460
EKVX = system: EKVX
MCF7 = system: MCF7
UO-31 = system: UO-31
HCT-15 = system: HCT-15
BT-549 = system: BT-549
SF-268 = system: SF-268
K562 = system: K562
NCI/ADR-RES = system: NCI/ADR-RES
MDA-MB-231 = system: MDA-MB-231
IGROV-1 = system: IGROV-1
Malme-3M = system: Malme-3M
TK-10 = system: TK-10
T47D = system: T47D
SK-MEL-5 = system: SK-MEL-5
NCI-H226 = system: NCI-H226
M14 = system: M14
HL-60 = system: HL-60
SK-MEL-2 = system: SK-MEL-2
U-251 = system: U-251
SF-539 = system: SF-539
OVCAR-4 = system: OVCAR-4
SF-295 = system: SF-295
UACC-62 = system: UACC-62
DU-145 = system: DU-145
CCRF-CEM = system: CCRF-CEM
SN12C = system: SN12C
SK-MEL-28 = system: SK-MEL-28
MDA-N = system: MDA-N
OVCAR-3 = system: OVCAR-3
PC-3 = system: PC-3

For `O=[N+]([O-])c1ccc2nc(=S)[nH]n2c1`, the GI50 (SW-620) was > 100 µM (inactive), the GI50 (RPMI-8226) was > 100 µM (inactive) and the GI50 (MDA-MB-435) was > 100 µM (inactive). For the same compound, the GI50 (HT-29) was > 100 µM (inactive), the GI50 (ACHN) was > 100 µM (inactive) and the GI50 (COLO 205) was > 100 µM (inactive). The GI50 (HCT-116) was > 100 µM (inactive), the GI50 (A549) was > 100 µM (inactive) and the GI50 (SNB-75) was > 100 µM (inactive). The GI50 (KM12) was > 100 µM (inactive), the GI50 (MOLT-4) was > 100 µM (inactive) and the GI50 (Hs-578T) was > 100 µM (inactive). The GI50 (OVCAR-8) was > 100 µM (inactive), the GI50 (HOP-62) was > 100 µM (inactive) and the GI50 (OVCAR-5) was > 100 µM (inactive). For the same compound, the GI50 (NCI-H522) was > 100 µM (inactive), the GI50 (HCC 2998) was > 100 µM (inactive) and the GI50 (786-0) was > 100 µM (inactive). The GI50 (SNB-19) was > 100 µM (inactive), the GI50 (RXF 393) was > 100 µM (inactive) and the GI50 (CAKI-1) was > 100 µM (inactive). The GI50 (NCI-H23) was > 100 µM (inactive), the GI50 (UACC-257) was > 100 µM (inactive) and the GI50 (SK-OV-3) was > 100 µM (inactive). The GI50 (SR) was > 100 µM (inactive), the GI50 (HOP-92) was > 100 µM (inactive) and the GI50 (LOX IMVI) was > 100 µM (inactive). For the same compound, the GI50 (A498) was > 100 µM (inactive), the GI50 (NCI-H460) was > 100 µM (inactive) and the GI50 (EKVX) was > 100 µM (inactive). For the same compound, the GI50 (MCF7) was > 100 µM (inactive), the GI50 (UO-31) was > 100 µM (inactive) and the GI50 (HCT-15) was over 100 µM. The GI50 (BT-549) was > 100 µM (inactive), the GI50 (SF-268) was > 100 µM (inactive) and the GI50 (K562) was > 100 µM (inactive). The GI50 (NCI/ADR-RES) was > 100 µM (inactive), the GI50 (MDA-MB-231) was > 100 µM (inactive) and the GI50 (IGROV-1) was > 100 µM (inactive). For the same compound, the GI50 (Malme-3M) was > 100 µM (inactive), the GI50 (TK-10) was > 100 µM (inactive) and the GI50 (T47D) was > 100 µM (inactive). For the same compound, the GI50 (SK-MEL-5) was > 100 µM (inactive), the GI50 (NCI-H226) was > 100 µM (inactive) and the GI50 (M14) was > 100 µM (inactive). The GI50 (HL-60) was > 100 µM (inactive), the GI50 (SK-MEL-2) was > 100 µM (inactive) and the GI50 (U-251) was > 100 µM (inactive). For the same compound, the GI50 (SF-539) was > 100 µM (inactive), the GI50 (OVCAR-4) was > 100 µM (inactive) and the GI50 (SF-295) was > 100 µM (inactive). The GI50 (UACC-62) was > 100 µM (inactive), the GI50 (DU-145) was > 100 µM (inactive) and the GI50 (CCRF-CEM) was > 100 µM (inactive). The GI50 (SN12C) was > 100 µM (inactive).
For `Cc1ccc(S(=O)(=O)OC2CC(C(C)(C)C)CCC2c2ccccc2)cc1` (stereo not drawn), the GI50 (SW-620) was > 100 µM (inactive), the GI50 (RPMI-8226) was 17.9 µM (inactive) and the GI50 (MDA-MB-435) was 66.1 µM (inactive). The GI50 (SK-MEL-28) was > 100 µM (inactive), the GI50 (HT-29) was 32.1 µM (inactive) and the GI50 (ACHN) was 54.6 µM (inactive). The GI50 (MDA-N) was 99.8 µM (inactive), the GI50 (COLO 205) was > 100 µM (inactive) and the GI50 (HCT-116) was 50 µM (inactive). For the same compound, the GI50 (A549) was 40.6 µM (inactive), the GI50 (SNB-75) was 27.9 µM (inactive) and the GI50 (KM12) was 99.8 µM (inactive). For the same compound, the GI50 (MOLT-4) was 44.6 µM (inactive), the GI50 (OVCAR-8) was > 100 µM (inactive) and the GI50 (HOP-62) was 53 µM (inactive). The GI50 (OVCAR-5) was > 100 µM (inactive), the GI50 (786-0) was > 100 µM (inactive) and the GI50 (SNB-19) was 86.7 µM (inactive). For the same compound, the GI50 (RXF 393) was 89.7 µM (inactive), the GI50 (CAKI-1) was 66.1 µM (inactive) and the GI50 (NCI-H23) was > 100 µM (inactive). For the same compound, the GI50 (UACC-257) was 29 µM (inactive), the GI50 (SK-OV-3) was > 100 µM (inactive) and the GI50 (SR) was 23.6 µM (inactive). For the same compound, the GI50 (HOP-92) was 23.3 µM (inactive), the GI50 (LOX IMVI) was > 100 µM (inactive) and the GI50 (A498) was > 100 µM (inactive). For the same compound, the GI50 (NCI-H460) was 78.7 µM (inactive), the GI50 (EKVX) was > 100 µM (inactive) and the GI50 (MCF7) was 35.1 µM (inactive). The GI50 (UO-31) was > 100 µM (inactive), the GI50 (HCT-15) was over 100 µM and the GI50 (OVCAR-3) was 93.5 µM (inactive). For the same compound, the GI50 (BT-549) was > 100 µM (inactive), the GI50 (K562) was 53.5 µM (inactive) and the GI50 (NCI/ADR-RES) was > 100 µM (inactive). For the same compound, the GI50 (MDA-MB-231) was > 100 µM (inactive), the GI50 (IGROV-1) was 72.8 µM (inactive) and the GI50 (TK-10) was > 100 µM (inactive). For the same compound, the GI50 (T47D) was 53.7 µM (inactive), the GI50 (SK-MEL-5) was 79.8 µM (inactive) and the GI50 (NCI-H226) was > 100 µM (inactive). The GI50 (M14) was 88.7 µM (inactive), the GI50 (HL-60) was > 100 µM (inactive) and the GI50 (PC-3) was 70 µM (inactive). For the same compound, the GI50 (SK-MEL-2) was > 100 µM (inactive), the GI50 (U-251) was 50.1 µM (inactive) and the GI50 (SF-539) was > 100 µM (inactive). For the same compound, the GI50 (OVCAR-4) was 34.9 µM (inactive), the GI50 (SF-295) was 42.1 µM (inactive) and the GI50 (UACC-62) was 57.5 µM (inactive). The GI50 (DU-145) was > 100 µM (inactive) and the GI50 (SN12C) was > 100 µM (inactive).
